The source of these data is patent US20240034736A1, “HSD17B13 INHIBITORS AND USES THEREOF” (FL2022-001, Inc., priority 2020, published 2024).

pIC50: −log10 of the molar value.

Recombinant human HSD17B13 enzyme, sequence (Q7Z5P4 20-300): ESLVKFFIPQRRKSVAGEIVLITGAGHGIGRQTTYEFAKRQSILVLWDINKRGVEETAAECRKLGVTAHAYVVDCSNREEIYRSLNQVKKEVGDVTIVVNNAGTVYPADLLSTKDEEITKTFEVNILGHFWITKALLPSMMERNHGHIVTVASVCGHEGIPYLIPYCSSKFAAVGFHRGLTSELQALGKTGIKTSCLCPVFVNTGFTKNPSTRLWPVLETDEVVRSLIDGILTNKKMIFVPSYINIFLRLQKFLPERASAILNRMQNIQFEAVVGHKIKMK

One assay has as its target Recombinant human HSD17B13 enzyme (Homo sapiens (Human), UniProt Q7Z5P4). Put plainly: HSD17b13 NAD(P)H-Glo Biochemical Assay. The settings on record: 50 uM estradiol, 1 mM NAD+; read-out: HSD17β13 IC50. The procedure, abridged: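 Recombinant human HSD17B13 was pre-incubated with inhibitor for 20 min at RT in 20 mM Tris pH 7.4 with 0.002% Tween-20 and 0.02% BSA. Reaction then ran with 50 uM estradiol and 1 mM NAD+ (final) for 3 h at 37° C. NADH formed was detected by NAD(P)H-Glo luminescence after 1 h at RT.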
As usually defined, the pIC50 is the IC50 on a negative log10 scale, so that one unit is a factor of ten. As for `O=S(=O)(C1CC1)N1CCN(c2cc3cnn(-c4cc(O)c(F)c(F)c4)c3cc2Cl)CC1` [Compound 21.32, 5-(6-Chloro-5-(4-(cycloprop-ylsulfonyl)piperazin-1-yl)-1H-indazol-1-yl)-2,3-difluoro-phenol], the pIC50 is 6.00 to 7.00.

For the compound `CC(C)S(=O)(=O)NC1CN(c2cc3cnn(-c4cc(O)c(F)c(F)c4)c3cc2Cl)C1` [Compound 21.33, N-(1-(6-Chloro-1-(3,4-difluoro-5-hydroxyphenyl)-1H-indazol-5-yl)azetidin-3-yl)propane-2-sulfonamide], the pIC50 is 6.00 to 7.00.

`O=S(=O)(NC1CN(c2cc3cnn(-c4cc(O)c(F)c(F)c4)c3cc2Cl)C1)c1ccccc1` [Compound 21.34, N-(1-(6-Chloro-1-(3,4-difluoro-5-hydroxyphenyl)-1H-indazol-5-yl)azetidin-3-yl)benzene-sulfonamide]: the pIC50 was 6.00 to 7.00.

In the case of `CNS(=O)(=O)C1CN(c2ccc3c(cnn3-c3cc(O)c(F)c(F)c3)c2)C1` [Compound 21.35, 1-(1-(3,4-Difluoro-5-hydroxy-phenyl)-1H-indazol-5-yl)-N-methylazetidine-3-sulfonamide], the pIC50 was 4.52 to 6.00.

For the compound `CN(C)S(=O)(=O)C1CN(c2ccc3c(cnn3-c3cc(O)c(F)c(F)c3)c2)C1` [Compound 21.36, 1-(1-(3,4-Difluoro-5-hydroxy-phenyl)-1H-indazol-5-yl)-N,N-dimethylazetidine-3-sulfon-amide], the pIC50 is 6.00 to 7.00.

As for `O=S(=O)(CC1CC1)NC1CN(c2cc3cnn(-c4cc(O)c(F)c(F)c4)c3cc2Cl)C1` [Compound 21.37, N-(1-(6-Chloro-1-(3,4-difluoro-5-hydroxyphenyl)-1H-indazol-5-yl)azetidin-3-yl)-1-cyclo-propylmethanesulfonamide], the negative-log IC50 (pIC50) was 6.00 to 7.00.

Regarding `O=S(=O)(CC1CC1)N1CCN(c2cc3cnn(-c4cc(O)c(F)c(F)c4)c3cc2Cl)CC1` [Compound 21.38, 5-(6-Chloro-5-(4-((cycloprop-ylmethyl)sulfonyl)piperazin-1-yl)-1H-indazol-1-yl)-2,3-difluorophenol], the negative-log IC50 (pIC50) is 6.00 to 7.00.

For `O=S(=O)(c1ccccc1)N1CCN(c2cc3cnn(-c4cc(O)c(F)c(F)c4)c3cc2Cl)CC1` [Compound 21.39, 5-(6-Chloro-5-(4-(phenyl-sulfonyl)piperazin-1-yl)-1H-indazol-1-yl)-2,3-difluoro-phenol], the pIC50 was 6.00 to 7.00.

For `CS(=O)(=O)N1CCN(c2cc3cnn(-c4cc(O)c(F)c(F)c4)c3cn2)CC1` [Compound 21.40, 2,3-Difluoro-5-(5-(4-(methyl-sulfonyl)piperazin-1-yl)-1H-pyrazolo[3,4-c]pyridine-1-yl)-phenol], the pIC50 was 6.00 to 7.00.

`CS(=O)(=O)N1CCN(c2cc3cnn(-c4cc(O)c(F)c(C(F)(F)F)c4)c3cn2)CC1` [Compound 21.41, 2-Fluoro-5-(5-(4-(methyl-sulfonyl)piperazin-1-yl)-1H-pyrazolo[3,4-c]pyridine-1-yl)-3-(trifluoromethyl)phenol]: the pIC50 is 6.00 to 7.00.

Consider `Oc1cc(-n2ncc3cc(N4CCCCC4)ncc32)cc(C(F)(F)F)c1F` [Compound 21.42, 2-Fluoro-5-(5-(piperidin-1-yl)-1H-pyrazolo[3,4-c]pyridine-1-yl)-3-(trifluoromethyl)phenol], for which the pIC50 is 6.00 to 7.00.

For `CC1(C)CCN(c2cc3cnn(-c4cc(O)c(F)c(C(F)(F)F)c4)c3cn2)CC1` [Compound 21.43, 5-(5-(4,4-Dimethylpiperidin-1-yl)-1H-pyrazolo[3,4-c]-pyridine-1-yl)-2-fluoro-3-(trifluoromethyl)phenol], the pIC50 was 6.00 to 7.00.

Consider `Oc1cc(-n2ncc3cc(N4CCC5(CC4)CC5)ncc32)cc(C(F)(F)F)c1F` [Compound 21.44, 5-(5-(6-Azaspiro[2.5]octan-6-yl)-1H-pyrazolo[3,4-c]pyridine-1-yl)-2-fluoro-3-(trifluoro-methyl)phenol], for which the pIC50 was more than 7.00.

For the compound `CS(=O)(=O)N1CCN(c2ccc3c(cnn3-c3cc(O)c(F)c(C(F)(F)F)c3)c2)C2(CC2)C1` [Compound 21.45, 2-Fluoro-5-(5-(7-(methyl-sulfonyl)-4,7-diazaspiro[2.5]-octan-4-yl)-1H-indazol-1-yl)-3-(trifluoromethyl)phenol], the negative-log IC50 (pIC50) is 6.00 to 7.00.

Turning to `CS(=O)(=O)N1CCN(c2ccc3c(cnn3-c3cc(O)c(F)c(C(F)(F)F)c3)c2)C2(CCC2)C1` [Compound 21.46, 2-Fluoro-5-(5-(8-(methyl-sulfonyl)-5,8-diazaspiro[3.5]-nonan-5-yl)-1H-indazol-1-yl)-3-(trifluoromethyl)phenol], the pIC50 was 6.00 to 7.00.

In the case of `CC1CN(S(C)(=O)=O)CCN1c1ccc2c(cnn2-c2cc(O)c(F)c(C(F)(F)F)c2)c1` (centres unmarked) [Compound 21.47, 2-Fluoro-5-(5-(2-methyl-4-(methylsulfonyl)piperazin-1-yl)-1H-indazol-1-yl)-3-(trifluoromethyl)phenol], the pIC50 was 6.00 to 7.00.

With `CC1(C)CN(S(C)(=O)=O)CCN1c1ccc2c(cnn2-c2cc(O)c(F)c(C(F)(F)F)c2)c1` [Compound 21.48, 5-(5-(2,2-Dimethyl-4-(methyl-sulfonyl)piperazin-1-yl)-1H-indazol-1-yl)-2-fluoro-3-(trifluoromethyl)phenol], the pIC50 was 4.52 to 6.00.

Consider `CS(=O)(=O)N1CCN(c2cc3cnn(-c4cc(O)c(F)c(F)c4)c3cc2C2CC2)CC1` [Compound 21.49, 5-(6-Cyclopropyl-5-(4-(meth-ylsulfonyl)piperazin-1-yl)-1H-indazol-1-yl)-2,3-difluoro-phenol], for which the pIC50 is 6.00 to 7.00.

With `Cc1nn(-c2cc(O)c(F)c(C(F)(F)F)c2)c2cnc(N3CCN(S(C)(=O)=O)CC3)cc12` [Compound 21.50, 2-Fluoro-5-(3-methyl-5-(4-(methylsulfonyl)piperazin-1-yl)-1H-pyrazolo[3,4-c]-pyridine-1-yl)-3-(trifluoro-methyl)phenol], the pIC50 was 6.00 to 7.00.

With `CS(=O)(=O)N1CCN(c2cc3c(C4CC4)nn(-c4cc(O)c(F)c(C(F)(F)F)c4)c3cn2)CC1` [Compound 21.51, 5-(3-Cyclopropyl-5-(4-(meth-ylsulfonyl)piperazin-1-yl)-1H-pyrazolo[3,4-c]pyridine-1-yl)-2-fluoro-3-(trifluoromethyl)-phenol], the pIC50 was 6.00 to 7.00.

`CS(=O)(=O)N1CCN(c2ncc3c(cnn3-c3cc(O)c(F)c(C(F)(F)F)c3)n2)CC1` [Compound 21.52, 2-Fluoro-5-(5-(4-(methyl-sulfonyl)piperazin-1-yl)-1H-pyrazolo[4,3-d]pyrimidin-1-yl)-3-(trifluoromethyl)phenol]: the pIC50 is 6.00 to 7.00.

Regarding `CS(=O)(=O)N1CCN(c2cc3c(F)nn(-c4cc(O)c(F)c(C(F)(F)F)c4)c3cn2)CC1` [Compound 21.53, 2-Fluoro-5-(3-fluoro-5-(4-(methylsulfonyl)piperazin-1-yl)-1H-pyrazolo[3,4-c]pyridin-1-yl)-3-(trifluoromethyl)phenol], the pIC50 is more than 7.00.

With `Oc1cc(-n2ncc3cc(N4CCOCC45CC5)ncc32)cc(C(F)(F)F)c1F` [Compound 21.54, 5-(5-(7-Oxa-4-azaspiro[2.5]-octan-4-yl)-1H-pyrazolo[3,4-c]pyridin-1-yl)-2-fluoro-3-(trifluoromethyl)phenol], the pIC50 was 6.00 to 7.00.

Regarding `C[C@@H]1COCCN1c1cc2cnn(-c3cc(O)c(F)c(C(F)(F)F)c3)c2cn1` [Compound 21.55, (R)-2-Fluoro-5-(5-(3-methyl-morpholino)-1H-pyrazolo[3,4-c]pyridin-1-yl)-3-(trifluoro-methyl)phenol], the pIC50 is 6.00 to 7.00.

In the case of `C[C@H]1COCCN1c1cc2cnn(-c3cc(O)c(F)c(C(F)(F)F)c3)c2cn1` [Compound 21.56, (S)-2-Fluoro-5-(5-(3-methyl-morpholino)-1H-pyrazolo[3,4-c]pyridin-1-yl)-3-(trifluoro-methyl)phenol], the pIC50 was 6.00 to 7.00.

For the compound `Oc1cc(-n2ncc3cc(N4CCOCC4)ncc32)cc(C(F)(F)F)c1F` [Compound 21.57, 2-Fluoro-5-(5-morpholino-1H-pyrazolo[3,4-c]pyridin-1-yl)-3-(trifluoromethyl)phenol], the pIC50 is 6.00 to 7.00.

Consider `CN(c1ccc2c(c1)c(F)nn2-c1cc(C(F)(F)F)c(F)c(O)c1F)C1CCOCC1` [Compound 21.58, 2,6-Difluoro-3-(3-fluoro-5-(methyl(tetrahydro-2H-pyran-4-yl)amino)-1H-indazol-1-yl)-5-(trifluoromethyl)phenol], for which the pIC50 is 6.00 to 7.00.

For the compound `Oc1c(F)c(-n2nnc3cc(N4CCOCC45CC5)ncc32)cc(C(F)(F)F)c1F` [Compound 21.59, 3-(6-(7-Oxa-4-azaspiro[2.5]-octan-4-yl)-3H-[1,2,3]triazolo-[4,5-c]pyridin-3-yl)-2,6-difluoro-5-(trifluoromethyl)-phenol], the pIC50 was 6.00 to 7.00.

As for `Oc1c(F)c(-n2cnc3cc(N4CCOCC45CC5)ncc32)cc(C(F)(F)F)c1F` [Compound 21.60, 3-(6-(7-Oxa-4-azaspiro[2.5]-octan-4-yl)-3H-imidazo[4,5-c]pyridin-3-yl)-2,6-difluoro-5-(trifluoromethyl)phenol], the negative-log IC50 (pIC50) was 4.52 to 6.00.

The same assay, now with this note: read-out: HSD17β13 inhibition at 10 uM.
The inhibition is the drop in the measured response relative to a control, in per cent. For `Cc1nc2cc(N3CCOCC34CC4)ncc2n1-c1cc(C(F)(F)F)c(F)c(O)c1F` [Compound 21.63, 2,6-Difluoro-3-(2-methyl-6-(7-oxa-4-azaspiro[2.5]octan-4-yl)-3H-imidazo[4,5-c]pyridin-3-yl)-5-(trifluoromethyl)phenol], the inhibition at 10 µM was less than 20%.

The assay is the same for the next values; noted with them: read-out: HSD17β13 inhibition at 30 uM.
For the compound `CS(=O)(=O)N1CCN(c2ccc3c(c2)cc(C(=O)O)n3-c2ccc(F)c(O)c2)CC1` [Compound 21.61, 1-(4-Fluoro-3-hydroxyphenyl)-5-(4-(methylsulfonyl)piperazin-1-yl)-1H-indole-2-carboxylic acid], the inhibition at 30 µM is less than 20%.

On to `COC(=O)c1cc2cc(N3CCN(S(C)(=O)=O)CC3)ccc2n1-c1ccc(F)c(O)c1` [Compound 21.62, Methyl 1-(4-fluoro-3-hydroxy-phenyl)-5-(4-(methylsulfonyl)-piperazin-1-yl)-1H-indole-2-carboxylate], for which the inhibition at 30 µM was less than 20%.
